Reference: ChEMBL document CHEMBL6103546, “TRPM8 and TRPA1 ideal targets for treating cold-induced pain” (Eur J Med Chem, 2025)
One block for each compound: values may come before it.

Tests used:
[1] = biological target: T1, Transient receptor potential cation channel subfamily A member 1 (Homo sapiens, UniProt O75762); assay: Antagonist activity at TRPA1 (unknown origin) transfected in HEK293F cells assessed as reduction in intracellular Ca2+ by fluorescence based assay; assay type: cell-based
T1 sequence (O75762 whole entry): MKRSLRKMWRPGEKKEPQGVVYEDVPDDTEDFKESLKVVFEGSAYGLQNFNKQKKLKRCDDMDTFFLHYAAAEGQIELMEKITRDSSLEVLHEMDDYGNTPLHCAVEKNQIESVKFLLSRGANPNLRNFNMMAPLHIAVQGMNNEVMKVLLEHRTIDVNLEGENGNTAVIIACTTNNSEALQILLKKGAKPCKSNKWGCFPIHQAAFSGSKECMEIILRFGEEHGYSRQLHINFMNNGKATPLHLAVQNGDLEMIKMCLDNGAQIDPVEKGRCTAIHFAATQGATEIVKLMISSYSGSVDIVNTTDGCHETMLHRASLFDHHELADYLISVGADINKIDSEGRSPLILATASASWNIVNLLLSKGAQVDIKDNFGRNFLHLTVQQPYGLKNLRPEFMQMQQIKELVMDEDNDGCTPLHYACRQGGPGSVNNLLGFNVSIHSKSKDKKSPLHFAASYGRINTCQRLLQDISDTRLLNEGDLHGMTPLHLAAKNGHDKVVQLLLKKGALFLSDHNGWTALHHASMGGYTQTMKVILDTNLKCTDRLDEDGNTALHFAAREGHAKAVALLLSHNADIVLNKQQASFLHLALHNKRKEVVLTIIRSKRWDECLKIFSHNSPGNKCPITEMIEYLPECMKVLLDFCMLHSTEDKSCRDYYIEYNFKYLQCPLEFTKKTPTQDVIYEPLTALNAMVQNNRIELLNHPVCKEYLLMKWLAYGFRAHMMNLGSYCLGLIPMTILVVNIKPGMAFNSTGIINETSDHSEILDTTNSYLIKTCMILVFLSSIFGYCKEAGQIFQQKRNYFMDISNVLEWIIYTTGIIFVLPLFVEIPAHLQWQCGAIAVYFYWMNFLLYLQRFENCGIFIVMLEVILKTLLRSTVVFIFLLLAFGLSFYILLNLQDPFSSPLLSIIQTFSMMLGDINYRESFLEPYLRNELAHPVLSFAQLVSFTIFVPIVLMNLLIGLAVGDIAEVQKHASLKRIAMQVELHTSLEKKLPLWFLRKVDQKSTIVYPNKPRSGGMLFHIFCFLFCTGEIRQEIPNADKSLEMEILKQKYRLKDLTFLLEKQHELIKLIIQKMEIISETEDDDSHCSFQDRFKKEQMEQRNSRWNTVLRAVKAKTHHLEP

[2] = biological target: T1, Transient receptor potential cation channel subfamily A member 1; assay: […] at human TRPA1 expressed in HEK293T cells assessed as inhibition of AITC-induced current by whole cell patch clamp analysis; assay type: cell-based
[3] = biological target: T1, Transient receptor potential cation channel subfamily A member 1; assay: Antagonist activity at TRPA1 (unknown origin) expressed in HEK293 cells assessed as inhibition of AITC-induced intracellular Ca2+ flux by fluorescence dye based assay; assay type: cell-based
[4] = biological target: T1, Transient receptor potential cation channel subfamily A member 1; assay: Antagonist activity at human TRPA1 expressed in CHO cells assessed as inhibition of AITC-induced intracellular Ca2+ flux by fluorescence dye based assay; assay type: cell-based
[5] = biological target: T1, Transient receptor potential cation channel subfamily A member 1; assay: Antagonist activity at recombinant TRPA1 (unknown origin) expressed in T-REx-293 cells assessed as inhibition of AITC-induced intracellular Ca2+ flux by patch clamp assay; assay type: cell-based
[6] = biological target: T2, Transient receptor potential cation channel subfamily M member 8 (Homo sapiens, UniProt Q7Z2W7); assay: Antagonist activity at human recombinant TRPM8 stably transfected in HEK293 cells assessed as inhibition of intracellular Ca2+ flux incubated for 60 mins by Fluo-4 dye based fluorescence assay; assay type: cell-based
T2 sequence (Q7Z2W7 whole entry): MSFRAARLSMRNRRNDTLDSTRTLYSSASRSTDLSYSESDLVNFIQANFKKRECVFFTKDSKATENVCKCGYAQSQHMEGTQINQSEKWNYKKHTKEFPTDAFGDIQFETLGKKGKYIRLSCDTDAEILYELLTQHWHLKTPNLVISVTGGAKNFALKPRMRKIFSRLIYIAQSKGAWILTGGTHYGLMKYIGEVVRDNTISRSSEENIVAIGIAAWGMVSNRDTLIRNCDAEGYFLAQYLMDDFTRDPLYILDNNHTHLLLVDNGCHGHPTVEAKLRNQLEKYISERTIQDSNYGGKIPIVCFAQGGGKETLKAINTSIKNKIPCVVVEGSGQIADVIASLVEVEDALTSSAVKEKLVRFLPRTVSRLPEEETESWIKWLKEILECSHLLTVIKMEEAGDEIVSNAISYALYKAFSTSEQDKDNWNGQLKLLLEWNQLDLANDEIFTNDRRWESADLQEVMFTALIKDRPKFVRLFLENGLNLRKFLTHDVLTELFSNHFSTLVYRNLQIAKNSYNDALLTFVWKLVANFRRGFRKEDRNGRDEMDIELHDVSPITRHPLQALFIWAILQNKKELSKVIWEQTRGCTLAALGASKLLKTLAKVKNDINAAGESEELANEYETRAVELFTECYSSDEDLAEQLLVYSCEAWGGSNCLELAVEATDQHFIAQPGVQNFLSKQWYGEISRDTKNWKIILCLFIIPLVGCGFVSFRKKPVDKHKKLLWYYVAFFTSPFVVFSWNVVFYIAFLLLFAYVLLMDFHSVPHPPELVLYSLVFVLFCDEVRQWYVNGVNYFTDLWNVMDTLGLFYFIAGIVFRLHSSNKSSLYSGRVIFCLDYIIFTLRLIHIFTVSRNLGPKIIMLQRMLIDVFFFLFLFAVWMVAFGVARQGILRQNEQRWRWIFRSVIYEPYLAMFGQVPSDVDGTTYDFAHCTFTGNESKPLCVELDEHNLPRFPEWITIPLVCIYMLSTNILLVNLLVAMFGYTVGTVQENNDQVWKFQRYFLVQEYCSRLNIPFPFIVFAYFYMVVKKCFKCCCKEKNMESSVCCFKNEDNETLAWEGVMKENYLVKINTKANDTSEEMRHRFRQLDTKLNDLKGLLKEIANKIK

[7] = biological target: T2, Transient receptor potential cation channel subfamily M member 8; assay: Antagonist activity at TRPM8 (unknown origin)
[8] = biological target: T2, Transient receptor potential cation channel subfamily M member 8; assay: Antagonist activity at human TRPM8 expressed in HEK293 cells; assay type: cell-based
[9] = biological target: Transient receptor potential cation channel subfamily M member 8 (Rattus norvegicus, UniProt Q8R455); assay: Antagonist activity at rat TRPM8 transfected in HEK293T cells assessed as reduction in intracellular Ca2+ level Fluo-4 dye based fluorescence assay; assay type: cell-based
Transient receptor potential cation channel subfamily M member 8 (Rattus norvegicus, UniProt Q8R455), sequence (Q8R455 whole entry): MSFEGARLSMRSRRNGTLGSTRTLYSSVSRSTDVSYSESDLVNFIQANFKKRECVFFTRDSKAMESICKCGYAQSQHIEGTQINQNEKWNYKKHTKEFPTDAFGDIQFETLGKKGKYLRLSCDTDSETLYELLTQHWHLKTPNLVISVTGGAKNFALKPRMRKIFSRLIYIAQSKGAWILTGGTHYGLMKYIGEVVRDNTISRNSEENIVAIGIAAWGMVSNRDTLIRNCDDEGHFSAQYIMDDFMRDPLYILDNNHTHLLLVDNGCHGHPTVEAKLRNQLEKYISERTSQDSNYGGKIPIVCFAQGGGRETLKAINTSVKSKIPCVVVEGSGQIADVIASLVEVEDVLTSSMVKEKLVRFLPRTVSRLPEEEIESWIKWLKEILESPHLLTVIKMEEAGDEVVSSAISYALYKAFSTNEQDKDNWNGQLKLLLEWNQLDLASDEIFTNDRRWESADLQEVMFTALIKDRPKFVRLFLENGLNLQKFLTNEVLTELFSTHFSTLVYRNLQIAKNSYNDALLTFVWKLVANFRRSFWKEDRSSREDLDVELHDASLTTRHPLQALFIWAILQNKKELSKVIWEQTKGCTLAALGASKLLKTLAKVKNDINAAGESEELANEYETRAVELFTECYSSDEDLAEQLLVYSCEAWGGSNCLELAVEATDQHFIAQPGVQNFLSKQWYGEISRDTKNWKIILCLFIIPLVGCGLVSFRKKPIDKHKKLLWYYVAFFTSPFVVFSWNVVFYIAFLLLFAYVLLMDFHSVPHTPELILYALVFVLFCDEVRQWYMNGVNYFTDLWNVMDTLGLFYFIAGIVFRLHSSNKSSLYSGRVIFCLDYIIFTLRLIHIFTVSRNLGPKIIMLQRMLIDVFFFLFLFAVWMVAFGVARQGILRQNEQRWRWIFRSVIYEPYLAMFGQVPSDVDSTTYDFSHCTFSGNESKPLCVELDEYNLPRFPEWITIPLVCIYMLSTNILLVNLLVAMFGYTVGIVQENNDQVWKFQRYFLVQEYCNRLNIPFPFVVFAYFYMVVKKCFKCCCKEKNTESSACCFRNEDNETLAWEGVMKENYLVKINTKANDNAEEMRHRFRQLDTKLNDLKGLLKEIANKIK

[10] = biological target: T2, Transient receptor potential cation channel subfamily M member 8; assay: Antagonist activity at human TRPM8 transfected in HEK293T cells assessed as inhibition of intracellular Ca2+ level by Fluo-4 dye based fluorescence assay; assay type: cell-based
[11] = biological target: T2, Transient receptor potential cation channel subfamily M member 8; assay: Agonist activity at TRPM8 (unknown origin)
[12] = biological target: T2, Transient receptor potential cation channel subfamily M member 8; assay: Antagonist activity at TRPM8 (unknown origin) in HEK293T cells; assay type: cell-based

- EC50 [1]: 45 nM
SMILES: COc1ccc(OC)c(NC(=O)c2nnn(Cc3ccc(Br)cc3F)c2N)c1

- EC50 [2]: 40 nM
SMILES: C[n+]1cc2c3c(ccc2c2ccc4cc5c(cc4c21)OCO5)OCO3

- EC50 [3]: 2600 nM
SMILES: C[C@@H](N)[C@@H](O)CCCCCCCCCCCCCCCCCCCCCCCC[C@H](O)[C@@H](C)N

- IC50 [4]: 1.7 nM
SMILES: C[C@H]1[C@H](F)C[C@@H](C(=O)NCc2cc(-c3cnc(C(F)(F)F)nc3)ncc2C(F)(F)F)N1S(=O)(=O)c1ccc(F)cc1

- IC50 [5]: 130 nM
SMILES: CCN(c1cccc(C)c1)S(=O)(=O)c1nnc(NC(=O)c2ccccc2)s1

- IC50 [6]: 300 nM
- IC50 [7]: 300 nM
SMILES: C[C@@H]1C(=O)N(C[C@@H](Cc2ccccc2)N(Cc2ccccc2)Cc2ccccc2)[C@]1(Cc1ccccc1)C(=O)OCc1ccccc1

- IC50 [8]: 50 nM
- IC50 [6]: 20 nM
- IC50 [7]: 20 nM
SMILES: C[C@H]1C(=O)N(C[C@@H](Cc2ccccc2)N(Cc2ccccc2)Cc2ccccc2)[C@@]1(Cc1ccccc1)C(=O)OCc1ccccc1

- IC50 [7]: 700 nM
SMILES: C[C@H]1C(=O)N(C[C@H](Cc2ccccc2)N(Cc2ccccc2)Cc2ccccc2)[C@@]1(Cc1ccccc1)C(=O)OCc1ccccc1

- IC50 [9]: 22.4 nM
- IC50 [10]: 25.3 nM
SMILES: O=C(N[C@H](Cn1nccn1)C(F)(F)CO)c1cccc(F)c1-c1cc(-c2ccc(F)cc2)[nH]n1

- IC50 [7]: 3100 nM
SMILES: C[C@@H]1C(=O)N(C[C@H](Cc2ccccc2)N(Cc2ccccc2)Cc2ccccc2)[C@]1(Cc1ccccc1)C(=O)OCc1ccccc1

- EC50 [11]: 5 nM
SMILES: O=C1NC(c2cccc([N+](=O)[O-])c2)=CCN1c1ccccc1O [ICILLIN]

SMILES: c1cc2c(cc1[C@H]1OC[C@H]3[C@@H]1CO[C@@H]3c1ccc3c(c1)OCO3)OCO2 [SESAMIN]
- IC50 [12]: 9780 nM
